In patent US20250171459A1, “2-METHYL-4',5'-DIHYDROSPIRO[PIPERIDINE-4,7'-THIENO[2,3-C]PYRAN] DERIVATIVES AS INHIBITORS OF APOL1 AND METHODS OF USING SAME” (Vertex Pharmaceuticals Incorporated, priority 2022, published 2025):

Target: T1, APOL1 (Homo sapiens, UniProt O14791)
T1 sequence (O14791 1-398 S342G/I384M): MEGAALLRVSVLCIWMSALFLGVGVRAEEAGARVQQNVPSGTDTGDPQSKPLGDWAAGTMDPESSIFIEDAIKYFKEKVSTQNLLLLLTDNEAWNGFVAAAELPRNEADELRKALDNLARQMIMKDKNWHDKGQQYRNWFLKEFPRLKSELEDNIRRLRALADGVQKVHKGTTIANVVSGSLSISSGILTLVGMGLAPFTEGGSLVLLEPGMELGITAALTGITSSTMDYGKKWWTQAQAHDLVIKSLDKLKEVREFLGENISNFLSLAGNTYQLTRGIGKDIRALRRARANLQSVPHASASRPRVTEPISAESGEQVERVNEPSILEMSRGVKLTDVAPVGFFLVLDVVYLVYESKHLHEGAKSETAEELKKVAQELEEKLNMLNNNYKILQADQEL
Assay: MultiTox-Fluor Multiplex Cytotoxicity Assay in tet-inducible APOL1 T-REx-HEK293 cells (cell rescue, ratio of dead to live cells)
Assay type: cell-based
Conditions: tet-inducible transgenic APOL1 T-REx-HEK293 cell lines, 50 ng/mL tet, 24 hours; read-out: IP50 (i.e., IC50 for cell proliferation)
Summary of the method: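 T-REx-HEK293 cells with tet-inducible APOL1 were treated with compound (10 μM top, 10-point 3-fold dilution, duplicate) plus 50 ng/mL tetracycline for 24 h at 37° C, in DMEM with 2% tet-free FBS. MultiTox-Fluor protease signals gave a dead/live ratio, normalized to no tet (100% viability) and tet alone (0%).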

SMILES: CCc1cc2c(s1)CCO[C@@]21CCN(Cc2cnc(NCc3ccc(O)cn3)nc2)[C@@H](C)C1 [Compound 206]
- IC50: < 100 nM

SMILES: CCc1cc2c(s1)CCO[C@@]21CCN(Cc2cnc(N[C@H]3CCNC3=O)nc2)[C@@H](C)C1 [Compound 207]
- IC50: < 100 nM

SMILES: CCc1cc2c(s1)CCO[C@@]21CCN(Cc2cnc(OCC(C)(C)N)nc2)[C@@H](C)C1 [Compound 208]
- IC50: < 100 nM

SMILES: CCc1cc2c(s1)CCO[C@@]21CCN(Cc2cnc(N[C@H]3CCCC[C@@H]3O)nc2)[C@@H](C)C1 [Compound 209]
- IC50: < 100 nM

SMILES: CCc1cc2c(s1)CCO[C@@]21CCN(Cc2cnc(NC34CCC(CO)(C3)C4)nc2)[C@@H](C)C1 [Compound 210]
- IC50: < 100 nM

SMILES: CCc1cc2c(s1)CCO[C@@]21CCN(Cc2ccc(N[C@@H](C)C(C)(C)O)nc2)[C@@H](C)C1 [Compound 211]
- IC50: < 100 nM

SMILES: CCc1cc2c(s1)CCO[C@@]21CCN(Cc2ccc(N[C@H]3COC[C@@H]3O)nc2)[C@@H](C)C1 [Compound 212]
- IC50: < 100 nM

SMILES: CCc1cc2c(s1)CCO[C@@]21CCN(Cc2cnc(N[C@@H](C)C(C)(C)O)nc2)[C@@H](C)C1 [Compound 213]
- IC50: < 100 nM

SMILES: CCc1cc2c(s1)CCO[C@@]21CCN(Cc2ccc(N[C@@H](CO)[C@@H](C)O)nc2)[C@@H](C)C1 [Compound 214]
- IC50: < 100 nM

SMILES: CCc1cc2c(s1)CCO[C@@]21CCN(Cc2cnc(OCC3(N)CCOC3)nc2)[C@@H](C)C1 (stereo partly drawn) [Compound 215]
- IC50: < 100 nM

SMILES: CCc1cc2c(s1)CCOC21CCN(Cc2ccc(NC3CN(S(C)(=O)=O)C3)nc2)[C@@H](C)C1 (stereo partly drawn) [Compound 216]
- IC50: < 100 nM

SMILES: CCc1cc2c(s1)CCO[C@@]21CCN(Cc2cnc(NCC(O)CO)nc2)[C@@H](C)C1 (stereo partly drawn) [Compound 217]
- IC50: < 100 nM

SMILES: CCc1cc2c(s1)CCO[C@@]21CCN(Cc2cnc(NC3CNC(=O)C3)nc2)[C@@H](C)C1 (stereo partly drawn) [Compound 218]
- IC50: < 100 nM

SMILES: CCc1cc2c(s1)CCO[C@@]21CCN(Cc2cnc(N[C@H]3CCC[C@H]3CO)nc2)[C@@H](C)C1 [Compound 219]
- IC50: < 100 nM

SMILES: CCc1cc2c(s1)CCO[C@@]21CCN(Cc2cnc(N[C@@H]3C(=O)NC[C@H]3O)nc2)[C@@H](C)C1 [Compound 220]
- IC50: < 100 nM

SMILES: CCc1cc2c(s1)CCO[C@@]21CCN(Cc2cnc(NCCN3CCNC3=O)nc2)[C@@H](C)C1 [Compound 221]
- IC50: < 100 nM

SMILES: CCc1cc2c(s1)CCO[C@@]21CCN(Cc2cnc(NC(CO)CO)nc2)[C@@H](C)C1 [Compound 222]
- IC50: < 100 nM

SMILES: CCc1cc2c(s1)CCO[C@@]21CCN(Cc2cnc(N[C@@H]3CCCC[C@H]3O)nc2)[C@@H](C)C1 [Compound 223]
- IC50: < 100 nM

SMILES: CCc1cc2c(s1)CCO[C@@]21CCN(Cc2cnc(NC(C)(CC)CO)nc2)[C@@H](C)C1 (stereo partly drawn) [Compound 224]
- IC50: < 100 nM

SMILES: CCc1cc2c(s1)CCO[C@@]21CCN(Cc2cnc(N[C@@H](C)C(=O)NC)nc2)[C@@H](C)C1 [Compound 225]
- IC50: < 100 nM

SMILES: CCc1cc2c(s1)CCO[C@@]21CCN(Cc2cnc(N[C@@H](CO)[C@H](C)O)nc2)[C@@H](C)C1 [Compound 226]
- IC50: < 100 nM

SMILES: CCc1cc2c(s1)CCO[C@@]21CCN(Cc2cnc(OCC3(N)CCCCC3)nc2)[C@@H](C)C1 [Compound 227]
- IC50: < 100 nM

SMILES: CCc1cc2c(s1)CCO[C@@]21CCN(Cc2ccc(NC(C)(C)CO)nc2)[C@@H](C)C1 [Compound 228]
- IC50: < 100 nM

SMILES: CCc1cc2c(s1)CCO[C@@]21CCN(Cc2cnc(N[C@@H](CO)[C@@H](C)O)nc2)[C@@H](C)C1 [Compound 229]
- IC50: < 100 nM

SMILES: CCc1cc2c(s1)CCO[C@@]21CCN(Cc2cnc(NCCN(CCO)CCO)nc2)[C@@H](C)C1 [Compound 230]
- IC50: < 100 nM

SMILES: CCc1cc2c(s1)CCO[C@@]21CCN(Cc2cnc(NCC(O)C(F)(F)F)nc2)[C@@H](C)C1 (stereo partly drawn) [Compound 231]
- IC50: 100 to 500 nM

SMILES: CCc1cc2c(s1)CCO[C@@]21CCN(C2COCC2O)[C@@H](C)C1 (stereo partly drawn) [Compound 232, 4-[(2′S,4R)-2-ethyl-2′-methyl-spiro[6,7-dihydrothieno[3,2-c]pyran-4,4′-piperidine]-1′-yl]tetrahydrofuran-3-ol]
- IC50: < 100 nM

SMILES: CCc1cc2c(s1)CCO[C@@]21CCN(C2COCC2O)[C@@H](C)C1 (stereo partly drawn) [Compound 233, 4-[(2′S,4R)-2-ethyl-2′-methyl-spiro[6,7-dihydrothieno[3,2-c]pyran-4,4′-piperidine]-1′-yl]tetrahydrofuran-3-ol]
- IC50: 100 to 500 nM

SMILES: CCc1cc2c(s1)CCO[C@@]21CCN(C2CCCC2O)[C@@H](C)C1 (stereo partly drawn) [Compound 234]
- IC50: < 100 nM

SMILES: CCc1cc2c(s1)CCO[C@@]21CCN(CC2(O)CCOCC2)[C@@H](C)C1 [Compound 235]
- IC50: 100 to 500 nM

SMILES: CCc1cc2c(s1)CCO[C@@]21CCN(CC(C)(C)O)[C@@H](C)C1 [Compound 236]
- IC50: 100 to 500 nM

SMILES: CCc1cc2c(s1)CCO[C@@]21CCN(C[C@@H](C)O)[C@@H](C)C1 [Compound 237]
- IC50: 100 to 500 nM

SMILES: CCc1cc2c(s1)CCO[C@@]21CCN(CC(O)CC(F)(F)F)[C@@H](C)C1 (stereo partly drawn) [Compound 238]
- IC50: 100 to 500 nM

SMILES: CCc1cc2c(s1)CCO[C@@]21CCN(CCO)[C@@H](C)C1 [Compound 239]
- IC50: 100 to 500 nM

SMILES: CCc1cc2c(s1)CCO[C@@]21CCN(CC(O)C(N)=O)[C@@H](C)C1 (stereo partly drawn) [Compound 240]
- IC50: 100 to 500 nM

SMILES: CCc1cc2c(s1)CCO[C@@]21CCN(CC(O)C(F)(F)F)[C@@H](C)C1 (stereo partly drawn) [Compound 241]
- IC50: 100 to 500 nM

SMILES: CCc1cc2c(s1)CCO[C@@]21CCN(CC(C)O)[C@@H](C)C1 (stereo partly drawn) [Compound 242]
- IC50: 100 to 500 nM

SMILES: CCc1cc2c(s1)CCO[C@@]21CCN(CC(O)C(F)(F)F)[C@@H](C)C1 (stereo partly drawn) [Compound 243]
- IC50: 100 to 500 nM

SMILES: CCc1cc2c(s1)CCO[C@@]21CCN(CC(O)CC(F)(F)F)[C@@H](C)C1 (stereo partly drawn) [Compound 244]
- IC50: 100 to 500 nM

SMILES: CCc1cc2c(s1)CCO[C@@]21CCN(C2CCCC2O)[C@@H](C)C1 (stereo partly drawn) [Compound 245]
- IC50: 100 to 500 nM

SMILES: CCc1cc2c(s1)CCO[C@@]21CCN(C[C@H](O)c2ccccc2)[C@@H](C)C1 [Compound 246]
- IC50: < 100 nM

SMILES: CCc1cc2c(s1)CCO[C@@]21CCN(CC(O)c2ccc(F)cc2)[C@@H](C)C1 (stereo partly drawn) [Compound 249]
- IC50: < 100 nM

SMILES: CCc1cc2c(s1)CCO[C@@]21CCN(CC(O)c2ccc(F)c(F)c2)[C@@H](C)C1 (stereo partly drawn) [Compound 253]
- IC50: 100 to 500 nM

SMILES: CCc1cc2c(s1)CCO[C@@]21CCN(CC(O)c2ccccc2Cl)[C@@H](C)C1 (stereo partly drawn) [Compound 254]
- IC50: < 100 nM

SMILES: CCc1cc2c(s1)CCO[C@@]21CCN(CC2(O)CCS(=O)(=O)CC2)[C@@H](C)C1 [Compound 257]
- IC50: 100 to 500 nM

SMILES: CCc1cc2c(s1)CCO[C@@]21CCN(Cc2cnn(CCS(=O)(=O)NC)c2)[C@@H](C)C1 [Compound 264, 2-[4-[[(2′S,4R)-2-ethyl-2′-methyl-spiro[6,7-dihydrothieno[3,2-c]pyran-4,4′-piperidine]-1′-yl]methyl]pyrazol-1-yl]-N-methyl-ethanesulfonamide]
- IC50: < 100 nM

SMILES: CCc1cc2c(s1)CCO[C@@]21CCN(Cc2cn[nH]c2)[C@@H](C)C1 [Compound 265]
- IC50: < 100 nM

SMILES: CCc1cc2c(s1)CCO[C@@]21CCN(Cc2cnn(CC(C)(CO)CO)c2)[C@@H](C)C1 [Compound 266]
- IC50: < 100 nM

SMILES: CCc1cc2c(s1)CCO[C@@]21CCN(Cc2cnn(C)c2)[C@@H](C)C1 [Compound 267]
- IC50: < 100 nM

SMILES: CCc1cc2c(s1)CCO[C@@]21CCN(Cc2cnn(CCS(C)(=O)=O)c2)[C@@H](C)C1 [Compound 268]
- IC50: < 100 nM

SMILES: CCc1cc2c(s1)CCO[C@@]21CCN(Cc2cnn(CCO)c2)[C@@H](C)C1 [Compound 269]
- IC50: < 100 nM
